We go through 1 compound from ChEMBL document CHEMBL4130634, “Discovery of Reversible DNA Methyltransferase and Lysine Methyltransferase G9a Inhibitors with Antitumoral in Vivo Efficacy” (J Med Chem, 2018).

pIC50: −log10 of the molar value.

One data set concerns the target CYP3A4 (Homo sapiens, UniProt P08684). Put plainly: Inhibition of CYP3A4 in human liver microsomes at 10 uM after 10 mins in presence of NADPH by LC-MS/MS analysis relative to control. In kind it is ADME. A general note: Liver microsomes are vesicles of endoplasmic reticulum, rich in cytochrome P450 enzymes.
Data set [1] in a line: Half life in mouse liver microsomes at 1 uM preincubated for 10 mins followed by NADP addition after 20 mins by LC-MS/MS analysis. In kind it is ADME, microsome.
Data set [2] concerns the target T1, Histone-lysine N-methyltransferase EHMT1 (Homo sapiens, UniProt Q9H9B1).
T1 sequence (Q9H9B1 whole entry): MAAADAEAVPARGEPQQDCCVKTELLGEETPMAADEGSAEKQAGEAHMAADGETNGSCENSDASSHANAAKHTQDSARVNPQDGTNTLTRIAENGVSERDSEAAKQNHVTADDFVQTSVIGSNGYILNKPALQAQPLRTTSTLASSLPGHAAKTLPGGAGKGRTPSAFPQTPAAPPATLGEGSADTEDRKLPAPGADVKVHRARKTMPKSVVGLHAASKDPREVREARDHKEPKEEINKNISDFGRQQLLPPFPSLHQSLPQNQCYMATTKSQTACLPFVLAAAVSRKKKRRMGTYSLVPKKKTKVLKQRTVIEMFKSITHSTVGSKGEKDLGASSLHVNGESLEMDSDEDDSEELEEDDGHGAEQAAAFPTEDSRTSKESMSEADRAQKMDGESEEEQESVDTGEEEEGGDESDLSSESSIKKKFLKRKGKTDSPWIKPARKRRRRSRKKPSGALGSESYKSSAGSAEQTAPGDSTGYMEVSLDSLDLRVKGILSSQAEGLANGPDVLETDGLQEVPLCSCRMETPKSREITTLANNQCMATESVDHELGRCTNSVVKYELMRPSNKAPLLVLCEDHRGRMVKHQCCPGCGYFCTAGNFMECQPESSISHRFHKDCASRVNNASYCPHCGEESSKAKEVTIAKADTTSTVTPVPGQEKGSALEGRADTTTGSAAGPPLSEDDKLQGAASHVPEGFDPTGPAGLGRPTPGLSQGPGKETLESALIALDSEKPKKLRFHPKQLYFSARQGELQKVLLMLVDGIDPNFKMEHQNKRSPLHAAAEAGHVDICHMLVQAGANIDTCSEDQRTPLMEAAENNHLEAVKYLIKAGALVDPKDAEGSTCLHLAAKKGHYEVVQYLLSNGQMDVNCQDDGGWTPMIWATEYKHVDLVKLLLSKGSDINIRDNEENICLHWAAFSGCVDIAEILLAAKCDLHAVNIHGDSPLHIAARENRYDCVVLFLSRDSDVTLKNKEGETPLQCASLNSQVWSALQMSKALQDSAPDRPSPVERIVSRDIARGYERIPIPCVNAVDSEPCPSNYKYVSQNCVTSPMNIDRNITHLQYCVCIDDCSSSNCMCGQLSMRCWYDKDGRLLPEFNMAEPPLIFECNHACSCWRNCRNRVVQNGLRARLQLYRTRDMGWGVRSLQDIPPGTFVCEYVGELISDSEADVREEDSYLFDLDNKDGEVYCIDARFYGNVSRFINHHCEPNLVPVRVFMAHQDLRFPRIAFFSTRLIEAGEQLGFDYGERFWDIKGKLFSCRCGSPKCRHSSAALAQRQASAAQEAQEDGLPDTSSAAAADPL
The experiment in a line: Inhibition of recombinant human GLP using histone H3 peptide as substrate after 120 mins in presence of [3H]SAM by radiometric assay.

A short description of data set [3]: Volume of distribution at steady state in RARG2-/-gammac-/- Balb/c mouse at 5 mg/kg, iv administered as single dose by LC-MS/MS analysis. Format: ADME, organism-based. As to conditions: in vivo, read-out: Vdss.
The next data set deals with T2, CYP1A2 (Homo sapiens, UniProt P05177).
T2 sequence (P05177 whole entry): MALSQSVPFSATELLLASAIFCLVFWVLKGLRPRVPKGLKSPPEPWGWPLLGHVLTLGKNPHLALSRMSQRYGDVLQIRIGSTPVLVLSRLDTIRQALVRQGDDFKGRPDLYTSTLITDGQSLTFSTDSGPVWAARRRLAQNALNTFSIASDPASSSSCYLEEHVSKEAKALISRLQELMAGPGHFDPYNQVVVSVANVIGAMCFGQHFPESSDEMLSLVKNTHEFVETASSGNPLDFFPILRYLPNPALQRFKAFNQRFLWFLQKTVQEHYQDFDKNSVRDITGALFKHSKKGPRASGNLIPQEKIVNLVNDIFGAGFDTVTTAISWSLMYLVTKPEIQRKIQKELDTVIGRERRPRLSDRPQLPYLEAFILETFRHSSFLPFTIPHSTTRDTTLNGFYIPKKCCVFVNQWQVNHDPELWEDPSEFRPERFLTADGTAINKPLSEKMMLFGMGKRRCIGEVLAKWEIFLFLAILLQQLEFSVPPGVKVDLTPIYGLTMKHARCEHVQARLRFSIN
The experiment in a line: Inhibition of CYP1A2 in human liver microsomes at 10 uM after 10 mins in presence of NADPH by LC-MS/MS analysis relative to control. Format: ADME.

Data set [4] can be described thus: Half life in RARG2-/-gammac-/- Balb/c mouse at 5 mg/kg, iv administered as single dose by LC-MS/MS analysis. Format: ADME, organism-based. The settings on record: in vivo.
The next data set concerns the target CYP2C19 (Homo sapiens, UniProt P33261). Put plainly: Inhibition of CYP2C19 in human liver microsomes at 10 uM after 10 mins in presence of NADPH by LC-MS/MS analysis relative to control. Format: ADME.
Data set [5] in a line: Growth inhibition of human LAL-CUN-2 cells after 48 hrs by MTS assay. In kind it is functional. On the technique in general: Formazan colour is commonly taken as a measure of viable cells.
The nature of data set [6]: Metabolic stability in mouse liver microsomes assessed as parent compound remaining at 1 uM preincubated for 10 mins followed by NADP addition after 20 mins by LC-MS/MS analysis. In kind it is ADME, microsome. The settings on record: read-out: Stability.
A further data set relates to MV4-11. Put plainly: Growth inhibition of human MV4-11 cells after 48 hrs by MTS assay. Format: functional. As to conditions: MV4-11, 48 h.
The subject of the next data set is THLE-2. The experiment in a line: Growth inhibition of human THLE2 cells after 72 hrs by MTS assay. In kind it is cell-based. As to conditions: thle-2, 72 h.
A short description of data set [7]: Metabolic stability in human liver microsomes assessed as parent compound remaining at 1 uM preincubated for 10 mins followed by NADP addition after 20 mins by LC-MS/MS analysis. Format: ADME, microsome. The settings on record: liver microsomes, read-out: Stability.
For the next data set, the target named is CYP2C9 (Homo sapiens, UniProt P11712). Put plainly: Inhibition of CYP2C9 in human liver microsomes at 10 uM after 10 mins in presence of NADPH by LC-MS/MS analysis relative to control. Format: ADME.
Sequence of CYP2C9 (P11712 whole entry): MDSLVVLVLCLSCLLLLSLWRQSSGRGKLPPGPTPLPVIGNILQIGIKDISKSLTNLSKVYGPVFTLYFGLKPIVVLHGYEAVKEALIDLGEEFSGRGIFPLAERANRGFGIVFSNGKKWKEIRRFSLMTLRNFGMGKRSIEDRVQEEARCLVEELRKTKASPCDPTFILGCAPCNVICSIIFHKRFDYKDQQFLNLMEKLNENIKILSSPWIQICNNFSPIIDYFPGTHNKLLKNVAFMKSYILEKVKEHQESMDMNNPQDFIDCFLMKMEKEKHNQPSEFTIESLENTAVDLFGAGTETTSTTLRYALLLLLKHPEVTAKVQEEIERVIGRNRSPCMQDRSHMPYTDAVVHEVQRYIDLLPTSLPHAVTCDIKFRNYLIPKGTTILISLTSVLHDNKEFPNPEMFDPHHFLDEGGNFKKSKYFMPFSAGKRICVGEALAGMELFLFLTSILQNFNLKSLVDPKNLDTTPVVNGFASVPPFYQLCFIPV
Another data set deals with OCI-Ly3. The experiment in a line: Growth inhibition of human OCI-LY3 cells after 48 hrs by MTS assay. In kind it is functional. As to conditions: OCI-Ly3, 48 h.
For a further data set, the target named is CYP2D6 (Homo sapiens, UniProt P10635). Put plainly: Inhibition of CYP2D6 in human liver microsomes at 10 uM after 10 mins in presence of NADPH by LC-MS/MS analysis relative to control. Format: ADME.
Sequence of CYP2D6 (P10635 whole entry): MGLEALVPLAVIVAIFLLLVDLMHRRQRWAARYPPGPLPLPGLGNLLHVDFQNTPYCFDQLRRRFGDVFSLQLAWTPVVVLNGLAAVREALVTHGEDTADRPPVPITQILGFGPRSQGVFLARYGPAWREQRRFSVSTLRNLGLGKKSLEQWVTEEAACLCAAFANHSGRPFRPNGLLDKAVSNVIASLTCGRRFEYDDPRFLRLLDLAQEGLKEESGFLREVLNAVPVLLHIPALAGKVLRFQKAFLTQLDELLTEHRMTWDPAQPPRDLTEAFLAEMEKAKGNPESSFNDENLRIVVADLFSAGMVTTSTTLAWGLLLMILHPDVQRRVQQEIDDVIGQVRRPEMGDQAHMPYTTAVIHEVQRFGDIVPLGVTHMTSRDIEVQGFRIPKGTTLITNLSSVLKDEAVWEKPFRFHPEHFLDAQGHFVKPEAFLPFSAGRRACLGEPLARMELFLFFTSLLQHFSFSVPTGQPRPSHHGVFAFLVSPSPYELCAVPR
Data set [8] is described as follows: Growth inhibition of human CEMO1 cells after 48 hrs by MTS assay. In kind it is functional.
Data set [9] is described as follows: Half life in human liver microsomes at 1 uM preincubated for 10 mins followed by NADP addition after 20 mins by LC-MS/MS analysis. The settings on record: liver microsomes. In kind it is ADME, microsome.

Sequence of CYP3A4 (P08684 whole entry): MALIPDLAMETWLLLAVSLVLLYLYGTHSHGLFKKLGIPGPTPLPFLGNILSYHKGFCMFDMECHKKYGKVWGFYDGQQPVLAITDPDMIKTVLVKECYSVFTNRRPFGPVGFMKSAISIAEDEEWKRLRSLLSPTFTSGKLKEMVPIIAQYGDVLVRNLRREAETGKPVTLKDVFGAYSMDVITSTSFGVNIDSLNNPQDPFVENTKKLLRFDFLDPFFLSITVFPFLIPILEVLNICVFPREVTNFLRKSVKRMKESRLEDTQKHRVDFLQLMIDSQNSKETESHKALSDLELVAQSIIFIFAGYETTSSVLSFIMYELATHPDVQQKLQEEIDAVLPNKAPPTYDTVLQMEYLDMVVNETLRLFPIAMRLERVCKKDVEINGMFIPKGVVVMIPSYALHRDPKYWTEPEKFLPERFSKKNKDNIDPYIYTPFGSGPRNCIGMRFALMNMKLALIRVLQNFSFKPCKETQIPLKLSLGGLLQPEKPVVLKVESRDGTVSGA
Sequence of CYP2C19 (P33261 whole entry): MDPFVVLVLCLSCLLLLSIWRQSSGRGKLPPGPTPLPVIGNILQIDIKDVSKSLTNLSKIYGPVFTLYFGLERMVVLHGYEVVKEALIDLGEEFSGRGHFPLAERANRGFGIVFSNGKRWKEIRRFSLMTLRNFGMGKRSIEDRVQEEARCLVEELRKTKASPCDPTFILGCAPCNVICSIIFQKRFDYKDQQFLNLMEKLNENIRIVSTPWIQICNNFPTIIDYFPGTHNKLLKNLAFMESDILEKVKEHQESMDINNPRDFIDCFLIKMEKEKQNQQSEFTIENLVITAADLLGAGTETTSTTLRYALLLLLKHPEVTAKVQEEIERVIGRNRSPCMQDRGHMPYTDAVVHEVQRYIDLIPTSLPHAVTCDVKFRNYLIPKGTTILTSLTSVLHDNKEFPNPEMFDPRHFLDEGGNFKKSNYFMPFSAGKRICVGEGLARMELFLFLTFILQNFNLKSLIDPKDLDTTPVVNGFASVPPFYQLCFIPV

For orientation: inhibition means how much of the control response was suppressed. For orientation: half-life means the time in which the quantity being followed falls by half. Low readings indicate rapid decline, high ones slow decline. A word on the pIC50: it is −log10 of the IC50, conventionally taken in molar units. Usually GI50 stands for the concentration at which growth is held to half of that of the control. One may read the LC50 as the concentration lethal to half of the exposed cells or organisms. Higher therefore signals a less lethal substance. `COc1cc2c(NC3CCN(C4CC4)CC3)cc(-c3ccc(C)o3)nc2cc1OCCCN1CCCC1`: the inhibition at 10 min, 10 µM worked out at 4.6% at CYP3A4; 28.6% on CYP1A2; 4% at CYP2C19; 8% at CYP2C9; 27.6% on CYP2D6. In addition, the half-life at 1 µM in [1] is 6 min; in [9] it was over 2.4 h. Besides, the pIC50 in [2] was under 4.70. The Vd in data set [3] was 11.9 L/kg. This compound had a half-life in [4] of 10.4 h. Besides, the GI50 was 1380 nM in data set [5], 1590 nM in the data set on MV4-11, 187 nM in the data set on OCI-Ly3 and 453 nM in data set [8]. Further, the remaining at 20 min, 1 µM came out at 15% in data set [6] and 97% in [7]. In the data set on THLE-2, the LC50 amounted to 455 nM.
